The subject of assay [1] is human melanoma cells (A375). The assay can be described thus: scratch assay, migration of A375 cells. Format: cell-based. The settings on record: A375, 10 μM, 48 hours; control group 44.03 ± 6.21. The gist of the method:
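Monolayers scratched, washed with PBS and cultured 48 hours in 2% FBS medium with polypeptides N1-N54 at 10 μM or PBS control, three wells per group. Migration rate (%) = (original − current scratch width)/original width×100, from imaged scratch widths.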

Assay [2] relates to human liver adenocarcinoma cells (SK-HEP-1). As to the kind of experiment: transwell invasion assay, SK-HEP-1 cells. Format: cell-based. The settings on record: SK-HEP-1 transwell invasion, 10 μM, 24 hours; control group 767 ± 91. An outline of the steps: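 Serum-free SK-HEP-1 cells were seeded in matrigel-coated upper chambers over complete medium. After 4-5 h, peptide was added to the upper chamber at 10 μM final. Following 24 h at 37° C., invaded cells were fixed, crystal violet-stained, imaged and counted.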

Assay [3] deals with human breast cancer cells (MDA-MB-453). The assay can be described thus: scratch assay, migration of MDA-MB-453 cells. Format: cell-based. The settings on record: MDA-MB-453, 10 μM, 48 hours; control group 32.42 ± 2.04. An outline of the steps:
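Confluent MDA-MB-453 monolayers were scratched, then treated with peptide at 10 μM in 2% FBS medium for 48 h, with a PBS control and triplicate wells. Migration rate (%) was taken as (original − current scratch width)/original width ×100 from images.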

The test system of assay [4] is human liver cancer cells (HepG2). The assay can be described thus: scratch assay, migration of HepG2 cells. Format: cell-based. The settings on record: HepG2, 10 μM, 48 hours; control group 71.01 ± 6.63. The gist of the method:
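HepG2 monolayers scratched, then cultured 48 h in 2% FBS medium with test polypeptides at 10 μM versus PBS control, triplicate wells. Migration rate (%) computed from original versus current scratch width in images.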

Assay [5] has as its system human lung cancer cells (A549) subcutaneous xenograft. As to the kind of experiment: lung cancer subcutaneous xenograft animal model, intravenous injection. The settings on record: intravenous 60 mg/kg once every other day, 20 days; for Weight of tumor (g) (mean ± SD): control 2.53 ± 0.17; for Volume of tumor (mm^3) (mean ± SD): control 3373.26 ± 581.44. Format: in vivo, mice (BALB/c-nu/nu). An outline of the steps: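 Female BALB/c-nu/nu mice (4-6 weeks) inoculated subcutaneously with ~2×10^6 A549 cells; grouped once tumours exceeded 100 mm^3. Peptides given intravenously at 60 mg/kg for 20 days versus model control. Tumour weight and volume measured at dissection; body weight recorded every other day.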

Assay [6] deals with human pancreatic cancer cells (PANC-1). The assay can be described thus: transwell invasion assay, PANC-1 cells. Format: cell-based. The settings on record: PANC-1 transwell invasion, 10 μM, 24 hours; control group 727 ± 68. An outline of the steps: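 Serum-free PANC-1 cells were seeded in matrigel-coated upper chambers with complete medium below. After 4-5 hours at 37° C., peptide was added at 10 μM final. Following 24 hours, invaded cells on the lower membrane surface were fixed, crystal violet-stained, imaged and counted against untreated controls.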

In assay [7] the test system is human breast cancer cells (MCF-7). As to the kind of experiment: scratch assay, migration of MCF-7 cells. Format: cell-based. The settings on record: MCF-7, 10 μM, 48 hours; control group 30.97 ± 1.79. The gist of the method:
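MCF-7 monolayers scratched, then cultured 48 hours in 2% FBS medium with test peptide at 10 μM versus PBS control, triplicate wells. Migration rate (%) = (original − current scratch width)/original width × 100, measured from images.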

The subject of assay [8] is human oral epidermoid carcinoma KB cells. As to the kind of experiment: scratch assay, migration of KB cells. Format: cell-based. The settings on record: 10 μM, 48 hours, control group 54.03 ± 4.21. The gist of the method: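 Monolayers of KB cells were scratched, washed with PBS, then cultured 48 hours in 2% FBS medium containing test polypeptide (10 μM) or PBS control, in triplicate wells. From images, migration rate (%) = (original − current scratch width)/original width × 100.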

The values that follow come from patent US20220280594A1, “APPLICATION OF POLYPEPTIDE OR DERIVATIVE THEREOF” (CHENGDU HUITAI BIOMEDICINE CO., LTD., priority 2019, published 2022).

Ends that are not written are not given here. PEG = not defined here

For the substance “N41: SEQ ID NO: 1 with addition of two amino acids at the amino terminal, deletion of position 18, PEG at the carboxyl terminal (FRYRVRFLAKENVTQDAED-{PEG}; reading uncertain)”, the “Migration rate (%) (mean ± SD, P)” value is on record as 10.01 ± 2.07,*** % in assay [1]; 11.5 ± 3.23,*** % in assay [3]; 25.59 ± 6.26,*** % in assay [4]; 5.19 ± 2.94,*** % in assay [7]; 20.01 ± 2.07,** % in assay [8]. In addition, the “Number of cells (mean ± SD, P), invaded cells” value (“Number of cells (mean ± SD, P)” below) in assay [2] is reported as 58 ± 12,****; in assay [6], 288 ± 38,****. In addition, the “Weight of tumor (g) (mean ± SD)” value in assay [5] came to 0.84 ± 0.34 g. The “Volume of tumor (mm^3) (mean ± SD)” value in assay [5] was determined as 1075.33 ± 350.78 mm^3.
In the case of “N42: SEQ ID NO: 1 with deletion of positions 1-5 and 15-18, PEG at the amino terminal, one amino acid added at the carboxyl terminal ({PEG}-LAKENVTQDR; reading uncertain)”, the “Migration rate (%) (mean ± SD, P)” value is recorded as 8.92 ± 2.25,*** % in assay [1]; 14.12 ± 9.89,** % in assay [3]; 30.92 ± 4.57,** % in assay [4]; 10.04 ± 2.28,** % in assay [7]; 8.92 ± 2.65,*** % in assay [8]. The “Number of cells (mean ± SD, P)” value in assay [2] is 149 ± 29,****; in assay [6] it was 399 ± 21,***. In addition, the “Weight of tumor (g) (mean ± SD)” value in assay [5] was 0.83 ± 0.31 g. Also, the “Volume of tumor (mm^3) (mean ± SD)” value in assay [5] is given as 1149.73 ± 346.36 mm^3.
For the substance “N43: SEQ ID NO: 1 with addition of one amino acid at the amino terminal, deletion of position 18, PEG at the carboxyl terminal (RYRVRFLAKENVTQDAED-{PEG}; reading uncertain)”, the “Migration rate (%) (mean ± SD, P)” value was 11.22 ± 1.74,*** % in assay [1]; 10.38 ± 6.04,** % in assay [3]; 26.54 ± 7.89,** % in assay [4]; 7.83 ± 3.42,** % in assay [7]; 11.22 ± 1.74,*** % in assay [8]. Moreover, the “Number of cells (mean ± SD, P)” value in assay [2] is listed as 107 ± 16,****; in assay [6] it was 251 ± 10,****. In assay [5], the “Weight of tumor (g) (mean ± SD)” value was 0.85 ± 0.14 g. Also, the “Volume of tumor (mm^3) (mean ± SD)” value in assay [5] is 1218.7 ± 190.78 mm^3.
Regarding “N45: SEQ ID NO: 1 with V11R, deletion of positions 1-5 and 15-18, PEG modification at the carboxyl terminal (LAKENRTQD-{PEG}; reading uncertain)”, the “Migration rate (%) (mean ± SD, P)” value in assay [1] is 18.79 ± 2.28,** %; in assay [3] it was 5.53 ± 2.87,*** %; in assay [4] it was 52.98 ± 4.08,* %; in assay [7], 17.06 ± 2.87,* %; in assay [8] it was 8.79 ± 2.28,*** %. Besides, the “Number of cells (mean ± SD, P)” value is 155 ± 10,**** in assay [2] and 358 ± 23,*** in assay [6]. In assay [5], the “Weight of tumor (g) (mean ± SD)” value is listed as 0.97 ± 0.28 g. Besides, the “Volume of tumor (mm^3) (mean ± SD)” value in assay [5] came to 1204.87 ± 212.94 mm^3.
Turning to “N47: SEQ ID NO: 1 with N18R, deletion of positions 1-2, one amino acid added and PEG at the carboxyl terminal (VRFLAKENVTQDAEDRC-{PEG}; reading uncertain)”, the “Migration rate (%) (mean ± SD, P)” value is listed as 8.82 ± 2.49,*** % in assay [1]; 14.66 ± 2.51,*** % in assay [3]; 54.67 ± 7.02,* % in assay [4]; 18.41 ± 2.35,* % in assay [7]; 8.82 ± 1.89,*** % in assay [8]. Also, the “Number of cells (mean ± SD, P)” value in assay [2] is on record as 85 ± 16,****; in assay [6] it was 133 ± 29,****. Further, the “Weight of tumor (g) (mean ± SD)” value in assay [5] is 0.75 ± 0.39 g. Besides, in assay [5], the “Volume of tumor (mm^3) (mean ± SD)” value turned out to be 1748.82 ± 508.08 mm^3.
In the case of “N48: SEQ ID NO: 1 with A7R, deletion of position 11 and position 18, PEG modification at the carboxyl terminal (YRVRFLRKENTQDAED-{PEG}; reading uncertain)”, the “Migration rate (%) (mean ± SD, P)” value in assay [1] is on record as 9.09 ± 2.23,*** %; in assay [3], 12.62 ± 3.25,** %; in assay [4], 25.43 ± 5.00,*** %; in assay [7], 15.62 ± 2.70,* %; in assay [8], 9.09 ± 4.23,*** %. Further, the “Number of cells (mean ± SD, P)” value in assay [2] is listed as 109 ± 10,****; in assay [6], 149 ± 12,****. Also, the “Weight of tumor (g) (mean ± SD)” value in assay [5] is reported as 0.71 ± 0.37 g. For the same substance, the “Volume of tumor (mm^3) (mean ± SD)” value in assay [5] turned out to be 1558.12 ± 436.42 mm^3.
For “N49: SEQ ID NO: 1 with A7R, deletion of positions 1-2 and position 18, PEG modification at the carboxyl terminal (VRFLRKENVTQDAED-{PEG}; reading uncertain)”, the “Migration rate (%) (mean ± SD, P)” value is reported as 6.51 ± 1.53,*** % in assay [1]; 15.79 ± 4.48,** % in assay [3]; 16.45 ± 5.88,*** % in assay [4]; 7.29 ± 3.80,** % in assay [7]; 16.51 ± 3.93,** % in assay [8]. Moreover, the “Number of cells (mean ± SD, P)” value in assay [2] is on record as 335 ± 32,***; in assay [6], 141 ± 7,****. Also, the “Weight of tumor (g) (mean ± SD)” value in assay [5] was 0.73 ± 0.26 g. The “Volume of tumor (mm^3) (mean ± SD)” value in assay [5] came to 1513.42 ± 287.49 mm^3.
In the case of “N50: SEQ ID NO: 1 with N18R, addition of 2 amino acid at the carboxyl terminal, PEG modification at the amino terminal ({PEG}-YRVRFLAKENVTQDAEDRCT; reading uncertain)”, the “Migration rate (%) (mean ± SD, P)” value is recorded as 15.97 ± 2.33,** % in assay [1]; 18.35 ± 3.91,** % in assay [3]; 16.03 ± 4.37,*** % in assay [4]; 6.83 ± 4.55,** % in assay [7]; 15.97 ± 2.93,** % in assay [8]. The “Number of cells (mean ± SD, P)” value in assay [2] is 243 ± 46,****; in assay [6] it was 310 ± 30,***. Moreover, the “Weight of tumor (g) (mean ± SD)” value in assay [5] was found to be 0.85 ± 0.27 g. Besides, the “Volume of tumor (mm^3) (mean ± SD)” value in assay [5] was found to be 1463.11 ± 472.43 mm^3.
On to “N51: SEQ ID NO: 1 with A15R, one amino acid added at each terminal, PEG modification at the amino terminal ({PEG}-FYRVRFLAKENVTQDREDNC; reading uncertain)”, for which the “Migration rate (%) (mean ± SD, P)” value in assay [1] is 17.96 ± 3.20,** %; in assay [3] it was 10.6 ± 2.33,*** %; in assay [4], 28.61 ± 5.89,** %; in assay [7], 8.56 ± 4.18,** %; in assay [8], 37.96 ± 3.60,* %. Further, the “Number of cells (mean ± SD, P)” value is on record as 248 ± 39,**** in assay [2] and 282 ± 28,**** in assay [6]. Moreover, the “Weight of tumor (g) (mean ± SD)” value in assay [5] is recorded as 0.75 ± 0.37 g. Moreover, the “Volume of tumor (mm^3) (mean ± SD)” value in assay [5] came out at 1412.56 ± 599.92 mm^3.
